Results: patent publication US20120046301A1, “Substituted Cyclic Carboxamide and Urea Derivatives as Ligands of the Vanilloid Receptor” (Gruenenthal GmbH, priority 2010, published 2012)

How the values were obtained:
[1] = system: male mice (NMRI); experiment: Formalin test on mice (second phase); type: in vivo
Procedure: The investigation to determine the antinociceptic action of the compounds according to the invention is carried out in the formalin test on male mice (NMRI, 20 bis 30 g body weight, Iffa, Credo, Belgium).
According to D. Dubuisson et al., Pain 1977, 4, 161-174, in the formalin test the first (early) phases ([…] after the formalin injection) and the second (late) phase (15 to 60 minutes after the formalin injection) are different. The early phase, which is a direct reaction to the formalin injection, represents a model of acute pain, whereas the late phase is regarded as a model of persistent (chronic) pain (T. J. Coderre et al., Pain 1993, 52, 259-285). The corresponding literature descriptions are hereby incorporated by way of reference and count as part of the disclosure.
The compounds according to the invention are investigated in the second phase of the formalin test, in order to obtain information on the effects of substances on chronic/inflammation pain.
The administration time of the compounds according to the invention before the formalin injection is selected depending on the type of administration of the compounds according to the invention. The intravenous administration of 10 mg/kg body weight of the test substances is carried out 5 minutes before the formalin injection. […]
The nociceptive behaviour is then continuously assessed by observing the animals for an investigation period of 3 minutes in the (second) late phase of the formalin test (21 to 24 minutes after the formalin injection). The pain behaviour is quantified by counting the time in seconds during which the animals licked and bit the affected paw during the investigation period.
The comparison is made in each case with control animals, which receive instead of the compounds according to the invention a neutral vehicle (0.9% aqueous sodium chloride solution) before the formalin injection. Based on the quantification of the pain behaviour, the effect of the substance in the formalin test is measured as the change compared to the corresponding control. […]

[2] = biological target: T1, vanilloid receptor 1 (VR1/TRPV1 receptor) (Homo sapiens, UniProt Q8NER1); experiment: FLIPR assay, CHO K1 cells transfixed with the human VR1 gene, displacement of capsaicin (Pharmacological Method II); type: cell-based; settings: capsaicin (Cap) 100 nM, Ki from IC50 by Cheng-Prusoff
T1 construct: expressed in transfected cells; host or cells: CHO K1 cells (ECACC), stably transfected
Procedure: In addition compounds according to the invention of the general formula (I) may be preferred, that in the FLIPR assay with CHO K1 cells that have been transfixed with the human VR1 gene effect in a concentration of less than 2000 nM, preferably less than 1000 nM, particularly preferably less than 300 nM, most particularly preferably less than 100 nM, even more preferably less than 75 nM, still most preferably less than 50 nM, and most of all preferably less than 10 nM, a 50% displacement of capsaicin that is present in a concentration of 100 nM.
In this connection the Ca^2+ inflow is quantified in the FLIPR assay with the aid of a Ca^2+-sensitive dye (Type Fluo-4, Molecular Probes Europe BV, Leiden, Netherlands) in a fluorescent imaging plate reader (FLIPR, Molecular Devices, Sunnyvale, USA), as described hereinafter.
The agonistic and antagonistic action of the substances to be investigated on the vanilloid receptor (VR1) can also be determined with the following assay. According to this assay the Ca^2+ inflow through the channel is quantified in the Fluorescent Imaging Plate Reader (FLIPR, Molecular Devices, Sunnyvale, USA) with the aid of a Ca^2+ sensitive dye (Type Fluo-4, Molecular Probes, Europe BV, Leiden, Netherlands).
Chinese hamster ovary cells (CHO K1 cells, European Collection of Cell Cultures (ECACC) Great Britain) are stably transfixed with the VR1 gene. For the functional investigations these cells are plated out on poly-D-lysine-coated, black 96-well plates with a clear floor (BD Biosciences, Heidelberg, Germany) in a density of 25,000 cells/well. The cells are incubated overnight at 37° C. and 5% CO2 in a culture medium (Nutrient Mixture ‘am's F12, 10 Vol % FCS (fetal calf serum), 18 μg/ml L-proline. The following day the cells are incubated with Fluo-4 (Fluo-4 2 μM, Pluronic F127 0.01 Vol %, Molecular Probes in HBSS (Hank's buffered saline solution), Gibco Invitrogen GmbH, Karlsruhe, Germany) for 30 minutes at 37° C. The plates are then washed 3 times with HBSS buffer and, after a further incubation for 15 minutes at RT, used in the FLIPR assay for the Ca^2+ measurement. The Ca^2+-dependent fluorescence is in this connection measured both before and after addition of the substances to be investigated (wavelength λex=488 nm, λem=540 nm). The quantification is carried out by measuring the highest fluorescence intensity (FC, Fluorescence Counts) over time.
The FLIPR protocol consists of 2 additions of substances. First of all the compounds to be tested (10 μM) are pipetted onto the cells and the Ca^2+ inflow is compared with the control (capsaicin 10 μM) (% activation referred to the Ca^2+ signal after addition of 10 μM capsaicin). After 5 minutes' incubation 100 nM capsaicin are added and the inflow of Ca^2+ is again determined.
Desensitising agonists and antagonists lead to a suppression of the Ca^2+ inflow. The % inhibition compared to the maximum achievable inhibition with 10 μM capsaicin is calculated.
Starting from the percentage displacement caused by different concentrations of the compounds of the general formula I to be tested, IC50 inhibiting concentrations that produce a 50% displacement of capsaicin were calculated. K, values for the test substances were obtained by reconversion using the (Cheng, Prusoff; Biochem. Pharmacol. 22, 3099-3108, 1973) relationship.

T1 sequence (Q8NER1 whole entry): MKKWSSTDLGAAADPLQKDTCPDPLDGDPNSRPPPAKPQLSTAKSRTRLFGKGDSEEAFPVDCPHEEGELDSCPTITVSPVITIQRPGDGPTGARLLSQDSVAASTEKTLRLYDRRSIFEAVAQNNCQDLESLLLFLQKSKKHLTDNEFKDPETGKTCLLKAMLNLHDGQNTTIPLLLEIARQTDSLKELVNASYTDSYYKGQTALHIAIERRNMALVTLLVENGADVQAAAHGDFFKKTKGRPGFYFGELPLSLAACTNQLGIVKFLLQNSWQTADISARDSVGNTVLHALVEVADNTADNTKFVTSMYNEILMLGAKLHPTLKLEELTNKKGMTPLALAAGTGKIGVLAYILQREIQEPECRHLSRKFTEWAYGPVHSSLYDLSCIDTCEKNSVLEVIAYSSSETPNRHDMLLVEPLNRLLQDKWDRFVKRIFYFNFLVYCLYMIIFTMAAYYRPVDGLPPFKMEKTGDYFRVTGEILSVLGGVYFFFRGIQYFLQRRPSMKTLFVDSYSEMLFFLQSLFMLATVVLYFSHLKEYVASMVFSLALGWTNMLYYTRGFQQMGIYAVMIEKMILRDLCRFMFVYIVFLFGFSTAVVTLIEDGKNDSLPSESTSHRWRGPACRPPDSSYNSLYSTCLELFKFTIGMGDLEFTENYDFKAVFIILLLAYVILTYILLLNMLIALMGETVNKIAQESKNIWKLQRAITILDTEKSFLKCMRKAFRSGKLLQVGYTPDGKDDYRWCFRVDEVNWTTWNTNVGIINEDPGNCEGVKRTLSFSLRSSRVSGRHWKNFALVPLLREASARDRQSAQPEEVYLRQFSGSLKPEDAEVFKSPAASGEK

Ki [2] [nM] | Compound | further results
10 | CC(C)(C)c1cc(CNC(=O)N2CCN(c3ncccc3Cl)CC2)n(-c2cccc(Cl)c2)n1 [Example 2, N-((3-tert-butyl-1-(3-chlorophenyl)-1H-pyrazol-5-yl)methyl)-4-(3-chloropyridin-2-yl)piperazine-1-carboxamide] | FTm, p.o. % effect @ dose (mg/kg) ([1]; dose 10.0 mg/kg): 1% @10.0; FTm, p.o. % effect @ dose (mg/kg) ([1]; dose 30.0 mg/kg): 36% @30.0; FTm, p.o. % effect @ dose (mg/kg) ([1]; dose 100.0 mg/kg): 66% @100.0
14 | O=C(NCc1cc(C(F)(F)F)nn1-c1cccc(Cl)c1)N1CCN(c2ncccc2Cl)CC1 [Example 3, N-((1-(3-chlorophenyl)-3-(trifluoromethyl)-1H-pyrazol-5-yl)methyl)-4-(3-chloropyridin-2-yl)piperazine-1-carboxamide] | 
5 | CC(C)(C)c1cc(CNC(=O)N2CCN(c3ccccc3F)CC2)n(-c2cccc(Cl)c2)n1 [Example 5, N-((3-tert-butyl-1-(3-chlorophenyl)-1H-pyrazol-5-yl)methyl)-4-(2-fluorophenyl)piperazine-1-carboxamide] | 
16 | Cc1c(C(F)(F)F)nn(-c2cccc(Cl)c2)c1CNC(=O)N1CCN(c2ncccc2Cl)CC1 [Example 9, N-((1-(3-chlorophenyl)-4-methyl-3-(trifluoromethyl)-1H-pyrazol-5-yl)methyl)-4-(3-chloropyridin-2-yl)piperazine-1-carboxamide] | 
85 | O=C(NCc1cc(C2CC2)nn1-c1cccc(Cl)c1)N1CCN(c2ncccc2Cl)CC1 [Example 10, N-((1-(3-chlorophenyl)-3-cyclopropyl-1H-pyrazol-5-yl)methyl)-4-(3-chloropyridin-2-yl)piperazine-1-carboxamide] | 
68 | CCCCCn1nc(C(F)(F)F)cc1CNC(=O)N1CCN(c2ncccc2Cl)CC1 [Example 12, 4-(3-chloropyridin-2-yl)-N-((1-pentyl-3-(trifluoromethyl)-1H-pyrazol-5-yl)methyl)piperazine-1-carboxamide] | 
27 | O=C(NCc1cc(C(F)(F)F)nn1-c1cccc(Cl)c1)N1CCC(c2ccccc2)CC1 [Example 26, N-((1-(3-chlorophenyl)-3-(trifluoromethyl)-1H-pyrazol-5-yl)methyl)-4-phenylpiperidine-1-carboxamide] | 
27 | O=C(NCc1cc(C(F)(F)F)nn1-c1cccc(Cl)c1)N1CC=C(c2ccc(F)cc2)CC1 [Example 34, N-((1-(3-chlorophenyl)-3-(trifluoromethyl)-1H-pyrazol-5-yl)methyl)-4-(4-fluorophenyl)-5,6-dihydropyridine-1(2H)-carboxamide] | 
45 | O=C(NCc1cc(C(F)(F)F)nn1-c1cccc(Cl)c1)N1CCN(c2ccccc2F)CC1 [Example 46, N-((1-(3-chlorophenyl)-3-(trifluoromethyl)-1H-pyrazol-5-yl)methyl)-4-(2-fluorophenyl)piperazine-1-carboxamide] | 
48 | O=C(NCc1cc(C(F)(F)F)nn1-c1cccc(Cl)c1)N1CCN(c2ccc(F)cc2)CC1 [Example 47, N-((1-(3-chlorophenyl)-3-(trifluoromethyl)-1H-pyrazol-5-yl)methyl)-4-(4-fluorophenyl)piperazine-1-carboxamide] | 
61 | COc1ccccc1N1CCN(C(=O)NCc2cc(C(F)(F)F)nn2-c2cccc(Cl)c2)CC1 [Example 48, N-((1-(3-chlorophenyl)-3-(trifluoromethyl)-1H-pyrazol-5-yl)methyl)-4-(2-methoxyphenyl)piperazine-1-carboxamide] | 
35 | COc1cccc(N2CCN(C(=O)NCc3cc(C(F)(F)F)nn3-c3cccc(Cl)c3)CC2)c1 [Example 49, N-((1-(3-chlorophenyl)-3-(trifluoromethyl)-1H-pyrazol-5-yl)methyl)-4-(3-methoxyphenyl)piperazine-1-carboxamide] | 
63 | COc1ccc(N2CCN(C(=O)NCc3cc(C(F)(F)F)nn3-c3cccc(Cl)c3)CC2)cc1 [Example 50, N-((1-(3-chlorophenyl)-3-(trifluoromethyl)-1H-pyrazol-5-yl)methyl)-4-(4-methoxyphenyl)piperazine-1-carboxamide] | 
7 | O=C(NCc1cc(C(F)(F)F)nn1-c1cccc(Cl)c1)N1CCN(c2ccccc2Cl)CC1 [Example 51, 4-(2-chlorophenyl)-N-((1-(3-chlorophenyl)-3-(trifluoromethyl)-1H-pyrazol-5-yl)methyl)piperazine-1-carboxamide] | 
36 | CC(C)(C)c1cc(CNC(=O)N2CCN(c3cccc(Cl)c3)CC2)n(-c2cccc(Cl)c2)n1 [Example 52, N-((3-tert-butyl-1-(3-chlorophenyl)-1H-pyrazol-5-yl)methyl)-4-(3-chlorophenyl)piperazine-1-carboxamide] | 
42 | CC(C)(C)c1cc(CNC(=O)N2CCN(c3ccc(Cl)cc3)CC2)n(-c2cccc(Cl)c2)n1 [Example 53, N-((3-tert-butyl-1-(3-chlorophenyl)-1H-pyrazol-5-yl)methyl)-4-(4-chlorophenyl)piperazine-1-carboxamide] | 
56 | O=C(NCc1cc(C(F)(F)F)nn1-c1cccc(Cl)c1)N1CCN(c2ccc(Cl)cc2)CC1 [Example 54, 4-(4-chlorophenyl)-N-((1-(3-chlorophenyl)-3-(trifluoromethyl)-1H-pyrazol-5-yl)methyl)piperazine-1-carboxamide] | 
4 | O=C(NCc1cc(C(F)(F)F)nn1-c1cccc(Cl)c1)N1CCN(c2ncccc2C(F)(F)F)CC1 [Example 56, N-((1-(3-chlorophenyl)-3-(trifluoromethyl)-1H-pyrazol-5-yl)methyl)-4-(3-(trifluoromethyl)pyridin-2-yl)piperazine-1-carboxamide] | 

Compound | Ki [2] [nM] | further results
N-((1-(3-chlorophenyl)-3-(trifluoromethyl)-1H-pyrazol-5-yl)methyl)-4-(1-(4-fluorophenyl)ethyl)piperazine-1-carboxamide [Example 22] | 41 | 
